Earlier results on one substance are cited in patent US6921530B1, “Low dose IL-2 for potentiation of immunity” (Cornell Research Foundation, Inc., priority 1999, dated 2005).

The subject of this data set is HCV. The conditions noted are these: 1-2 MIU s.c. daily; cited from earlier work.

For Interleukin-2 [IL-2], the “subjects showing a decrease in ALT” value is on record as 70%.
